Reference: patent US20100063139A1, “USE IN A COSMETIC COMPOSITION OF LIPOCHROMAN-6 TO ENHANCE THE RADIANCE OF THE COMPLEXION OF THE SKIN, ESPECIALLY THE SKIN OF THE FACE” (LVMH RECHERCHE, priority 2008, published 2010)
Where “and” joins values, the source holds several entries; their conditions need not be identical. Equal entries are not always repeated.

Key:
Format in all cases: cell-based
gene MsrB (msrb) = assay: Quantitative RT-PCR (RT-Q-PCR) of msrb gene expression in normal human epidermal keratinocytes; conditions: 24 h, NHK; for % Control (msrb/G3PDH): control = 100; for Mb Cycles (msrb): triplicate PCR cycle numbers
Procedure: (§1) The effect of lipochroman-6 on the basal expression of genes coding for the proteins MsrA and MsrB is evaluated by the method of quantitative RT-PCR (real-time PCR; RT-Q-PCR).
(§2) The model selected is that of normal human epidermal keratinocytes (NHK) cultivated in vitro.
(§3) Type: normal human epidermal keratinocytes (NHK)
(§4) Test medium: SFM medium without EGF and without PE (SFM-PE-EGF)
(§5) Lipochroman-6: stock solution at 10 mg/ml in ethanol, diluted in test medium at concentrations of 0.01 mg/ml and 0.005 mg/ml.
(§6) The keratinocytes are seeded and pre-cultured for 24 hours in complete SFM culture medium (24-well plates) and then placed in SFM-PE-EGF medium.
(§7) At confluence, the cells are treated or not (control) with the test product and are cultured for 24 h at 37° C. and 5% CO2. Each treatment is carried out in triplicate. The culture supernatants are then harvested and the cell layers are rinsed with PBS solution (Invitrogen), and then 300 μl of tri-reagent (Sigma) are added. The plates are subsequently frozen at −80° C.
(§8) The expression of the genes msra and msrb is evaluated by RT-Q-PCR on the basis of the messenger RNA (mRNA) extracted from the cell layers of each treatment. For each treatment, the three samples are combined into one prior to the extraction of the RNA.
(§9) The main steps of the protocol are as follows: • Extraction of the total RNA using tri-reagent, according to the protocol of the supplier. • Removal of traces of potentially contaminating DNA by treatment with the DNA-free system (Ambion). • Implementation of the reverse transcription reaction in the presence of the primer oligo(dT) and the enzyme Superscript II (Gibco).
(§10) The PCR reactions are carried out with the aid of the following primers: […]
(§11) The PCR (polymerase chain reaction) reactions are carried out by quantitative PCR with the Light Cycler system (Roche Molecular Systems Inc.) according to the procedures recommended by the supplier. To perform correctly, this analytical system requires prior development of the conditions of analysis of the different primers. This system is formed of two main components: an optimized thermocycler, which allows extremely rapid heat transfers, and a fluorimeter, which continuously measures the fluorescence intensity incorporated in the DNA (detection at 521 nm). The reaction mixture (10 μl final) for each sample is as follows: • 2.5 μl of cDNA diluted to 1/10th • primers of the different markers used • reaction mixture (Roche) containing the enzyme taq DNA polymerase, the marker SYBR Green I (a fluorophore which is integrated into the double-stranded DNA in the course of the elongation step) and MgCl2.
(§12) The incorporation of fluorescence into the amplified DNA is measured continuously during the PCR cycles. […] The number of cycles is determined on the basis of the “exit” points of the fluorescence curves. For a given marker analysed, the later the exit of a sample (high number of cycles) the lower the initial number of copies of the mRNA. The relative expression (RE) value is expressed in arbitrary units (AU) in accordance with the following formula: (½^number of cycles)×10^6.

gene MsrA (msra) = assay: Quantitative RT-PCR (RT-Q-PCR) of msra gene expression in normal human epidermal keratinocytes; conditions: 24 h, NHK; for % Control (msra/G3PDH): control = 100; for Mb Cycles (msra): triplicate PCR cycle numbers
Procedure: as §1, §2, §3, §4, §5, §6, §7, §8, §9, §10, §11, §12

[1] = tested on: methionine sulphoxide reductase (Msr); assay: Msr activity in protein extracts of treated human keratinocytes (N-acetyl-(3H)-methionine-R,S sulphoxide substrate); conditions: dose of 0.05%; human keratinocytes in culture, 24 h treatment
Procedure: The keratinocytes are obtained from grafts of skin originating from abdomens of healthy donors aged 47 years.
Lipochroman-6 powder (supplier: Lipotec) is first diluted in 20 μl of absolute ethanol. Then a stock solution at 10 mg/ml in the K-SFM-S medium is prepared.
An intermediate solution at 1 mg/ml (dilution 20 μl in 200 μl of K-SFM-S medium) is prepared from the lipochroman-6 stock solution.
The dilutions are carried out in the K-SFM-S medium on the basis of the intermediate solution at 1 mg/ml.
The medium is drawn off from the cell flasks (passage P3) and replaced with the medium containing the different dilutions of actives. After 24 hours of treatment, the cells are washed with PBS buffer and then treated with trypsin. The cells are finally counted with a NucleoCounter from Chemometec (Bioblock). […]
The Msr activity is measured on the basis of the protein extracts by using the substrate N-acetyl-(^3H)-methionine-(R, S) sulphoxide in a reaction mixture of 30 μl containing Tris-HCl pH 7.5, 25 mM, MgCl2 10 mM, DTT 15 mM, at 37° C. […]
The required quantity of proteins is withdrawn and made up with water to a reaction volume of 20.8 μl in a 2 ml Eppendorf tube stored in ice. […]
Following centrifugation at 15 000 g for 5 minutes at ambient temperature, 1 ml of the upper, organic phase is withdrawn and is counted in a scintillation vial and admixed with 2 ml of Sigma Fluor scintillant. […]

[2] = tested on: normal human keratinocytes (NHK); assay: Immunostaining (DNPH/anti-DNP) of oxidized proteins in normal human keratinocytes, confocal image analysis; conditions: for DNP marking/No. of cells / DNP marking/surface area measured / Surface area DNP marking: 48 h; for Proportion of oxidized proteins/cells, KHN 0002: donor KHN 0002; for Proportion of oxidized proteins/cells, KHN 9726: donor KHN 9726; for Proportion of oxidized proteins/cells, Mean: mean of two donors
Procedure: Normal human keratinocytes (NHK) isolated from harvesting of human skin carried out on two different donors (labelled KHN002 and KHN 9726 hereinafter) are cultured in T75 flasks in complete KSFM medium (KSFMc) (Invitrogen GIBCO) at 37° C. and 5% CO2 and are seeded at 20 000 cells per well in 8-well Lab-Tek II culture systems (Nalge Nunc International).
After 48 h of culture, the cells are treated with the treatment solutions (see below).
A 0.004% weight/volume lipochroman-6 solution is prepared (solution A).
This is done by dissolving 20 mg of lipochroman-6 powder (supplier: Lipotec) in 2 ml of ethanol (solution at 10 mg/ml). This solution is diluted (40 μl of the stock solution in 10 ml of KSFm medium) to give solution A.
The treatment solutions are prepared by diluting solution A prepared above in the KSFMc medium, to give the correct percentage of lipochroman-6.
Treatments carried out on 3 wells per cell type: • control: KSFMc • solvent control: 0.1% solution of ethanol in KSFMc medium • 0.001% lipochroman • 0.002% lipochroman
After 48 hours of treatment, the KSFMc is drawn off. The cells are rinsed with phosphate buffer (PBS) (PBS tablets, Invitrogen GIBCO), then fixed with formalin (formalin solution 10% neutral buffered, Sigma) for 10 minutes at ambient temperature. After rinsing with PBS, the culture chambers are filled with 0.1% triton solution (Triton X-100, Sigma) for 10 minutes, then rinsed with PBS.
The subsequently disassembled culture chambers and the slides are immersed in a solution of 2,4-dinitrophenylhydrazine (300 mg of DNPH (Fluka)) in an ethanol/sulphuric acid (98.5 ml/1.5 ml) mixture for 30 minutes.
The dinitrophenyl (DNP) groups fixed to the oxidized proteins are recognized by a primary anti-DNP antibody.
For this purpose, in a first step, the slides are covered with a solution of primary antibody (monoclonal mouse anti-DNP antibody, Sigma), diluted to 1/500th in a 1% BSA/PBS solution, and are incubated for 60 minutes in an oven at ambient temperature and then rinsed with a 0.1% Tween-PBS solution (Tween20, Merck). In a second step, the cells are covered with a secondary antibody solution (Alexafluor 546 goat anti-mouse, Invitrogen) in a 1% BSA/PBS solution, and are incubated away from the light for 60 minutes. The slides are subsequently rinsed with PBS-Tween and then with PBS.
The photographs are made by confocal microscopy (Axioplan microscope from Zeiss and krypton-argon laser from BioRad) with the aid of the LaserSharp 2000 software (BioRad). For each condition, three photographs are made with the ×40 lens, according to the same acquisition parameters (gain, iris).
In practice, an excitation fluorescence at 546 nm is applied by the confocal laser to the cells. The fluorochrome Alexafluor 546, which represents the oxidized proteins, emits fluorescence at 573 nm, which is recovered by a specific filter and can be observed. The measured fluorescence is therefore directly proportional to the amount of oxidized proteins.
The photographs are analysed with the aid of the Leica QWin image analysis software. A program allows the DNPH staining to be quantified in order to evaluate the level of oxidized proteins and the number of cells.
The program detects the fluorescent staining of the oxidized proteins. A detection zone which is as representative as possible (number, size, cell density, intensity of marking) is delimited. The fluorescence of the oxidized proteins is measured in the delimited zone, and the cells in the same zone are numbered by counting of the cell nuclei (see FIGS. 2a, 2b, 2c, 2d and 2e).
The effect of lipochroman-6 on the oxidation of proteins is measured on the two types of normal human keratinocytes (NHK). This is done by estimating the surface area of staining of the oxidized proteins, the surface area of the measurement zone and the number of cells in the measurement surface area, using an image processing system.

COc1cc2c(cc1O)CCC(C)(C)O2 [Lipochroman-6]
Mb/G3PDH (msrb/G3PDH) (gene MsrB (msrb); 0.005 mg/ml): 1.76 × 10^−2 | RE*Mb (AU) (msrb relative expression) (gene MsrB (msrb); 0.005 mg/ml): 3.516 × 10^−2 AU | % Control (msrb/G3PDH) (gene MsrB (msrb); 0.005 mg/ml): 127% | Mb Cycles (msrb) (gene MsrB (msrb); 0.005 mg/ml): 24.68 and 24.86 and 24.75 | Mb/G3PDH (msrb/G3PDH) (gene MsrB (msrb); 0.01 mg/ml): 2.05 × 10^−2 | RE*Mb (AU) (msrb relative expression) (gene MsrB (msrb); 0.01 mg/ml): 4.018 × 10^−2 AU | % Control (msrb/G3PDH) (gene MsrB (msrb); 0.01 mg/ml): 148% | Mb Cycles (msrb) (gene MsrB (msrb); 0.01 mg/ml): 24.62 and 24.60 and 24.49 | Mb/G3PDH (msra/G3PDH) (gene MsrA (msra); 0.005 mg/ml): 4.14 × 10^−3 | RE*Mb (AU) (msra relative expression) (gene MsrA (msra); 0.005 mg/ml): 8.251 × 10^−3 AU | % Control (msra/G3PDH) (gene MsrA (msra); 0.005 mg/ml): 116% | Mb Cycles (msra) (gene MsrA (msra); 0.005 mg/ml): 26.84 and 26.91 and 26.81 | Mb/G3PDH (msra/G3PDH) (gene MsrA (msra); 0.01 mg/ml): 4.42 × 10^−3 | RE*Mb (AU) (msra relative expression) (gene MsrA (msra); 0.01 mg/ml): 8.66 × 10^−3 AU | % Control (msra/G3PDH) (gene MsrA (msra); 0.01 mg/ml): 124% | Mb Cycles (msra) (gene MsrA (msra); 0.01 mg/ml): 26.83 and 26.79 and 26.73 | Increase of Msr activity [1]: 44% | DNP marking/No. of cells ([2]; 0.001% lipochroman): 82.1 B | DNP marking/surface area measured ([2]; 0.001% lipochroman): 28.7% D | Surface area DNP marking ([2]; 0.001% lipochroman): 3776 C | Proportion of oxidized proteins/cells, KHN 0002 ([2]; 0.001% lipochroman-6, 48 h): 76.3 | Proportion of oxidized proteins/cells, KHN 9726 ([2]; 0.001% lipochroman-6, 48 h): 88 | Proportion of oxidized proteins/cells, Mean ([2]; 0.001% lipochroman-6, 48 h): 82.1 | DNP marking/No. of cells ([2]; 0.002% lipochroman): 52.0 A | DNP marking/surface area measured ([2]; 0.002% lipochroman): 18.4% B | Surface area DNP marking ([2]; 0.002% lipochroman): 2415 B | Proportion of oxidized proteins/cells, KHN 0002 ([2]; 0.002% lipochroman-6, 48 h): 60.9 | Proportion of oxidized proteins/cells, KHN 9726 ([2]; 0.002% lipochroman-6, 48 h): 43 | Proportion of oxidized proteins/cells, Mean ([2]; 0.002% lipochroman-6, 48 h): 52
